Test results from patent US9795652B2, “Use of endogenous antioxidant proteins in the treatment of stroke” (University of South Florida, priority 2010, dated 2017).

System: primary rat oligodendrocyte cultures
Assay: LIF protection of oligodendrocytes from oxygen glucose deprivation (extracellular LDH)
Type: cell-based
Conditions: 24 hours OGD
Description: OL cell death in culture was determined using the LDH assay (Takara Bio, Inc., Madison, Wis.), since cell death is associated with LDH release through the plasma membrane. LDH is present in a large number of tissues, like the heart, liver, kidney, skeletal muscle, brain, blood cells, and lungs. Tissue breakdown releases LDH, thereby elevating circulating LDH and indicating tissue damage. Briefly, 100 μl of tissue culture media from each experimental group was added to a 96-well plate and 100 μl of LDH reagent was added to each well. Plates were incubated for 30 min at 25° C. and absorbances were read on a microplate reader at a 548 nm wavelength. The media from HUCB cell only cultures served as a control for HUCB cell death. The absorbance of HUCB cell only media, as well as the absorbance of media only, was subtracted from the total absorbance of the OL wells to eliminate background LDH activity.
An oxygen deprivation model was used to test the effect of LIF on primary rat oligodendrocyte cultures. Cells were grown in neurobasal medium containing B27 and […] glutamine prior to OGD. To simulate ischemic conditions, the neurobasal medium was replaced with DMEM containing no glucose (OGD). The cells were then exposed to 1% O2, 5% CO2 and 94% N2 for 24 hours. No LIF (OGD) or LIF was added to the cells, at the concentrations indicated. […]

leukemia inhibitory factor [LIF]
extracellular LDH levels compared to untreated (OGD) (LIF 100 pg): about 47.6% | extracellular LDH compared to untreated cells (LIF 50 ng): approximately 2.7%
